pIC50: −log10 of the molar value.
Assays:
[1] = target: HDAC3 (Homo sapiens (Human), UniProt O15379); assay: HDAC enzyme assay, HDAC3; conditions: for HDAC3 fold over HDAC6 IC50 (selectivity for HDAC6): ratio HDAC3/HDAC6; for pIC50: read-out: HDAC3 IC50
[2] = target: HDAC1 (Homo sapiens (Human), UniProt Q13547); assay: HDAC enzyme assay, HDAC1; conditions: for HDAC1 fold over HDAC6 IC50 (selectivity for HDAC6): ratio HDAC1/HDAC6; for pIC50: read-out: HDAC1 IC50
[3] = target: HDAC2 (Homo sapiens (Human), UniProt Q92769); assay: HDAC enzyme assay, HDAC2; conditions: for HDAC2 fold over HDAC6 IC50 (selectivity for HDAC6): ratio HDAC2/HDAC6; for pIC50: read-out: HDAC2 IC50
Chain of HDAC2 (Q92769 whole entry): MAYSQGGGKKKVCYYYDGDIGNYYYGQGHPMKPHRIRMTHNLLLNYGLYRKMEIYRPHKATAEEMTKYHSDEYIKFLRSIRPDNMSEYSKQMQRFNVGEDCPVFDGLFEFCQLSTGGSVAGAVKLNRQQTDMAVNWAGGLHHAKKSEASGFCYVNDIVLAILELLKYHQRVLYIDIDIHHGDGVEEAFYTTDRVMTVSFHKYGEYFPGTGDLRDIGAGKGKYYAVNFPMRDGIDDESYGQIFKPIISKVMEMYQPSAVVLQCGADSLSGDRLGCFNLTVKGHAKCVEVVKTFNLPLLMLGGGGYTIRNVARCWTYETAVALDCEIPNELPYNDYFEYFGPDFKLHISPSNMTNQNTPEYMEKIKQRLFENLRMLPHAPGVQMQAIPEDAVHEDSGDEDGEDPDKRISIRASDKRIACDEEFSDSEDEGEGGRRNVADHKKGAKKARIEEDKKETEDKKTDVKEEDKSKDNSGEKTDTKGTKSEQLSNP

[4] = target: HDAC6 (Homo sapiens (Human), UniProt Q9UBN7); conditions: read-out: HDAC6 IC50
Chain of HDAC6 (Q9UBN7 whole entry): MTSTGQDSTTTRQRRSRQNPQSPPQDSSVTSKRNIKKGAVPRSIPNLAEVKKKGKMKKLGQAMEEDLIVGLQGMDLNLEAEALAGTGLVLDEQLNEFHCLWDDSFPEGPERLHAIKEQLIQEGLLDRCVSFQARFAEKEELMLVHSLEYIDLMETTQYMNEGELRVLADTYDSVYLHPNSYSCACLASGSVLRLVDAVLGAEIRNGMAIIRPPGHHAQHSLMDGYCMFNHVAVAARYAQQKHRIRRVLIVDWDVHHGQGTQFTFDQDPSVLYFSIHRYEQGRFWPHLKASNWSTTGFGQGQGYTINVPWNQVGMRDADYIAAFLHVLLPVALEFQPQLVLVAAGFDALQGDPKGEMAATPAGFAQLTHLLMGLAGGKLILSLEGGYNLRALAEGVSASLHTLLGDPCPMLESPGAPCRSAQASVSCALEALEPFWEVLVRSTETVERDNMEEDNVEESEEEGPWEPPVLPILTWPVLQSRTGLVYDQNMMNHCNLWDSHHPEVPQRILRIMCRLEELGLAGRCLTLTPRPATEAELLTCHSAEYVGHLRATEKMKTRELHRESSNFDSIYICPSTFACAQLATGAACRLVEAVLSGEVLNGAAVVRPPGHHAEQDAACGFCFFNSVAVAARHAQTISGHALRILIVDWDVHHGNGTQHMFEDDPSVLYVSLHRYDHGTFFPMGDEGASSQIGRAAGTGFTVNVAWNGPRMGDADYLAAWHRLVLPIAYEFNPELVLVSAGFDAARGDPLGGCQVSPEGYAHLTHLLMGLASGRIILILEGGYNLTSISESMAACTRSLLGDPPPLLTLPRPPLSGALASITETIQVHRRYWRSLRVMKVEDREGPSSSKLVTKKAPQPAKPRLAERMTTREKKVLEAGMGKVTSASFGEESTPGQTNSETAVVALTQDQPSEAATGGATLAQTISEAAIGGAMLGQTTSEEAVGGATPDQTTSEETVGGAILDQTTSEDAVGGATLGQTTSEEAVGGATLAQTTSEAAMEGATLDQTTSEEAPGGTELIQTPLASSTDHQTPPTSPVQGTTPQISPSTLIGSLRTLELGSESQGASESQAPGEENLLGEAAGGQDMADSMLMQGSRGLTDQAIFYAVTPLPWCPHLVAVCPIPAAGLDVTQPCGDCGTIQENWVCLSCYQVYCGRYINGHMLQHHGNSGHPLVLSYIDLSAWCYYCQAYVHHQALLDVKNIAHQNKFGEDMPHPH

Chain of HDAC1 (Q13547 whole entry): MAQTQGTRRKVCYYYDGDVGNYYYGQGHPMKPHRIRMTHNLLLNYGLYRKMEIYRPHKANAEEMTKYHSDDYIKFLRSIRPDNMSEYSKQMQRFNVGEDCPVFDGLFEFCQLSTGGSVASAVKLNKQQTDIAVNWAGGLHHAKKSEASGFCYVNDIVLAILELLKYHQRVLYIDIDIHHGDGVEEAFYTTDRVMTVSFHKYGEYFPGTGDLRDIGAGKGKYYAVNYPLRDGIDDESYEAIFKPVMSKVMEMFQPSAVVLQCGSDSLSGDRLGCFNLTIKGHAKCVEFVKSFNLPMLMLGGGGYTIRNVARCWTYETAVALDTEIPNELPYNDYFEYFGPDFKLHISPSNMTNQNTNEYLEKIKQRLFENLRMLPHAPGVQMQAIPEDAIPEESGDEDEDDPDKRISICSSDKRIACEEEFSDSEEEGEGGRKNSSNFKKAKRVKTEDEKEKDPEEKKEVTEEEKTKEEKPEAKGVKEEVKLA
Chain of HDAC3 (O15379 whole entry): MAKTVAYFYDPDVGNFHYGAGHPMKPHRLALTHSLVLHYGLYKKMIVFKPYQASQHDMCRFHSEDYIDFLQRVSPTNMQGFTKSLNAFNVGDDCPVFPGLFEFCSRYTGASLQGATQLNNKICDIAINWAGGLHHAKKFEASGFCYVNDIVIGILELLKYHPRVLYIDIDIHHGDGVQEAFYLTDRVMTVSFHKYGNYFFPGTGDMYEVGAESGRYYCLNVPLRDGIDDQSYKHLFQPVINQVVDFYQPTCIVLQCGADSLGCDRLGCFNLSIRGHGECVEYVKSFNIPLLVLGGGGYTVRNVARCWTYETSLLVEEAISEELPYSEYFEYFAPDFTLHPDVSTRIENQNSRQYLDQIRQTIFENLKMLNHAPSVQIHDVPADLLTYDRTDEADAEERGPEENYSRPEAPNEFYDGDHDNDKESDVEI
Chain of HDAC3 (Q9Y618 395-489 partner): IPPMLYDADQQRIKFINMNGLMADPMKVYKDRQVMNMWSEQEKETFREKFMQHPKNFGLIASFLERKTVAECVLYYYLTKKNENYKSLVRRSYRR

Row | HDAC3 fold over HDAC6 IC50 (selectivity for HDAC6) [1] | pIC50 [1] | HDAC1 fold over HDAC6 IC50 (selectivity for HDAC6) [2] | pIC50 [2] | HDAC2 fold over HDAC6 IC50 (selectivity for HDAC6) [3] | pIC50 [3] | pIC50 [4] | Structure (SMILES)
1 | (14.4x) | 6.22 | (9.9x) | 6.38 | (14.9x) | 6.20 | 7.38 | O=C(NO)c1cnc(Nc2ccccc2Cl)nc1 [Compound 7]
2 |  | 6.66 |  |  |  |  | 7.42 | CN(c1ccc(Cl)c(Cl)c1)c1ncc(C(=O)NO)cn1 [Compound 8]
3 |  | 5.37 |  | 6.83 |  |  | 8.40 | O=C(NO)c1cnc(NC2(c3cccs3)CC2)nc1 [Compound 98]
4 |  |  |  |  |  |  | 8.70 | CC(Nc1ncc(C(=O)NO)cn1)c1ccccc1 (centres unmarked) [Compound 67]
5 |  | 7.27 |  | 7.89 |  | 7.77 |  | O=C(NO)c1cnc(NC2(c3ccc(Cl)c(Cl)c3)CC2)nc1 [Compound 141]
6 | (92.2x) | 6.32 | (46x) | 6.62 | (100.3x) | 6.28 | 8.30 | COc1cc(Nc2ncc(C(=O)NO)cn2)cc(C(F)(F)F)c1 [Compound 21]
7 |  | 7.24 |  | 7.40 |  | 7.28 |  | O=C(NO)c1cnc(NCc2ccc3c(c2)OCO3)nc1 [Compound 46]
8 | (18.5x) | 6.89 | (8x) | 7.26 | (9x) | 7.21 | 8.15 | O=C(NO)c1cnc(NC2(c3ccc(F)c(F)c3)CC2)nc1 [Compound 140]
9 | (113.5x) | 6.13 | (63.5x) | 6.38 | (106.6x) | 6.15 | 8.15 | O=C(NO)c1cnc(Nc2cc(Cl)cc(OC(F)(F)F)c2)nc1 [Compound 27]
10 | (66.6x) | 6.42 | (18.1x) | 6.98 | (23.5x) | 6.87 | 8.22 | O=C(NO)c1cnc(NC2(c3cc(C(F)(F)F)cc(C(F)(F)F)c3)CC2)nc1 [Compound 145]
11 | (37.6x) | 6.71 | (26x) | 6.88 | (50.9x) | 6.58 | 8.30 | Cc1cc(F)cc(Nc2ncc(C(=O)NO)cn2)c1 [Compound 24]
12 | (25.7x) | 7.47 | (15.5x) | 7.70 | (21.5x) | 7.55 | 9.00 | O=C(NO)c1cnc(NCc2cccc(Cl)c2)nc1 [Compound 34]
13 | (50.1x) | 6.74 | (30.7x) | 6.95 | (51.5x) | 6.73 | 8.40 | O=C(NO)c1cnc(Nc2cccc(-c3ccccc3)c2)nc1 [Compound 28]
14 | (81.5x) | 6.46 | (47.3x) | 6.70 | (75.6x) | 6.49 | 8.40 | O=C(NO)c1cnc(NC2(c3ccco3)CC2)nc1 [Compound 99]
15 | (47.7x) | 6.76 | (25.3x) | 7.04 | (36.5x) | 6.88 | 8.40 | O=C(NO)c1cnc(NCc2cccnc2)nc1 [Compound 106]
16 | (22x) | 6.06 | (15.3x) | 6.22 | (20.5x) | 6.09 | 7.40 | O=C(NO)c1cnc(NCCc2ccccc2-c2ccccc2)nc1 [Compound 59]
17 |  | 5.90 |  | 6.30 |  | 6.04 |  | CC(C)(Nc1ncc(C(=O)NO)cn1)c1ccccc1F [Compound 71]
18 |  | 6.63 |  | 7.07 |  | 6.94 |  | O=C(NO)c1cnc(NC2(c3cccc(F)c3)CC2)nc1 [Compound 87]
19 |  | 7.30 |  | 7.66 |  |  |  | O=C(NO)c1cnc(NC2(c3cccc(Cl)c3)CC2)nc1 [Compound 94]
20 |  |  |  |  |  |  | 7.72 | C[C@H](Nc1ncc(C(=O)NO)cn1)c1ccccc1 [Compound 65]

Row | HDAC3 fold over HDAC6 IC50 (selectivity for HDAC6) [1] | pIC50 [1] | HDAC1 fold over HDAC6 IC50 (selectivity for HDAC6) [2] | pIC50 [2] | HDAC2 fold over HDAC6 IC50 (selectivity for HDAC6) [3] | pIC50 [3] | pIC50 [4] | Structure (SMILES)
21 |  | 6.52 |  | 6.69 |  |  | 8.30 | O=C(NO)c1cnc(NCc2ccncc2)nc1 [Compound 69]
22 |  | 6.97 |  | 7.35 |  | 7.40 |  | O=C(NO)c1cnc(NC2(c3ccc(Cl)cc3)CC2)nc1 [Compound 136]
23 |  |  |  |  |  |  | 8.70 | C[C@@H](Nc1ncc(C(=O)NO)cn1)c1ccccc1 [Compound 62]
24 |  | 7.00 |  | 7.57 |  | 7.49 |  | O=C(NO)c1cnc(NC2(c3cccc(C(F)(F)F)c3)CC2)nc1 [Compound 121]
25 |  |  |  | 6.73 |  |  | 8.52 | Cc1cc(Cl)ccc1CNc1ncc(C(=O)NO)cn1 [Compound 52]
26 |  | 6.52 |  | 6.66 |  | 6.47 |  | COc1cc(F)ccc1CNc1ncc(C(=O)NO)cn1 [Compound 49]
27 |  |  |  |  |  |  | 8.70 | CC(Nc1ncc(C(=O)NO)cn1)c1ccccc1 (centres unmarked) [Compound 32]
28 |  | 6.52 |  | 6.58 |  |  | 8.30 | O=C(NO)c1cnc(Nc2ccc(Cl)c(Cl)c2)nc1 [Compound 2]
29 |  | 6.89 |  | 7.42 |  | 7.28 |  | COc1cccc(C2(Nc3ncc(C(=O)NO)cn3)CC2)c1 [Compound 120]
30 |  |  |  |  |  |  | 7.43 | C[C@H](Nc1ncc(C(=O)NO)cn1)c1ccccc1 [Compound 61]
31 |  | 6.49 |  | 6.67 |  |  | 8.40 | O=C(NO)c1cnc(NCCc2ccccc2)nc1 [Compound 41]
32 |  | 5.90 |  | 6.28 |  | 6.31 |  | O=C(NO)c1cnc(NC2(c3cccc(Cl)c3)CCCC2)nc1 [Compound 153]
33 |  | 7.66 |  | 7.80 |  | 7.74 |  | O=C(NO)c1cnc(NC2(c3ccccc3F)CC2)nc1 [Compound 82]
34 |  | 6.51 |  | 6.76 |  |  | 7.96 | O=C(NO)c1cnc(NCCc2ccc(Cl)cc2)nc1 [Compound 44]
35 |  | 6.92 |  | 7.30 |  | 7.24 |  | Cc1ccccc1C1(Nc2ncc(C(=O)NO)cn2)CC1 [Compound 127]
36 |  | 7.21 |  | 7.77 |  | 7.72 |  | O=C(NO)c1cnc(NC2(c3ccc(F)c(Cl)c3)CC2)nc1 [Compound 131]
37 |  | 7.00 |  | 7.33 |  | 7.40 |  | Cc1cccc(C2(Nc3ncc(C(=O)NO)cn3)CC2)c1 [Compound 134]
38 |  |  |  |  |  |  | 9.00 | C[C@@H](Nc1ncc(C(=O)NO)cn1)c1ccccc1 [Compound 66]
39 |  | 7.24 |  | 7.80 |  | 7.66 |  | O=C(NO)c1cnc(NC2(c3cc(Cl)cc(Cl)c3)CC2)nc1 [Compound 146]

From patent publication US8614223B2, “Pyrimidine hydroxy amide compounds as protein deacetylase inhibitors and methods of use thereof” (Acetylon Pharmaceuticals, Inc., priority 2010, dated 2013)
